The target in the first assay is T1, sGC α1/β1 heterodimer stably expressed in CHO-K1 cell line (CHO-K1/sGC) (Homo sapiens, UniProt Q02108+Q02153).
T1 construct: expressed in transfected cells
T1 sequence (Q02108 1-690): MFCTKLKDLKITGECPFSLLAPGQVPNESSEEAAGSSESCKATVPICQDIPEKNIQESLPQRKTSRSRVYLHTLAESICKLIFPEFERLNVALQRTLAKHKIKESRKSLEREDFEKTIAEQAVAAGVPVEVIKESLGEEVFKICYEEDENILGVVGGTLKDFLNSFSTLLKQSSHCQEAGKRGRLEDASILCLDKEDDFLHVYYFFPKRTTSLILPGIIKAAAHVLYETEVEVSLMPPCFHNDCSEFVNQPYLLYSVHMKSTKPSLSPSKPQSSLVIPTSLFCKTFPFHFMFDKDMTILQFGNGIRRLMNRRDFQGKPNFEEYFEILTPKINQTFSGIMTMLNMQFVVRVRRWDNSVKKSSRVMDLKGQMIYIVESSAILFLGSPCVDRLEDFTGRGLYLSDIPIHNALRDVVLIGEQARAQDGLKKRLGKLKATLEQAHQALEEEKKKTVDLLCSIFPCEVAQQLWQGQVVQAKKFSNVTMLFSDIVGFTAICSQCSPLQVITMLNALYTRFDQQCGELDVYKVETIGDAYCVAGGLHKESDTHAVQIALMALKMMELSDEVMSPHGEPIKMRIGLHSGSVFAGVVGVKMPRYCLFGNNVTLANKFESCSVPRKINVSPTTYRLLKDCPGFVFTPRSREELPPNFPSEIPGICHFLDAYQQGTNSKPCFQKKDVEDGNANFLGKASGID
T1 sequence (Q02153 1-619): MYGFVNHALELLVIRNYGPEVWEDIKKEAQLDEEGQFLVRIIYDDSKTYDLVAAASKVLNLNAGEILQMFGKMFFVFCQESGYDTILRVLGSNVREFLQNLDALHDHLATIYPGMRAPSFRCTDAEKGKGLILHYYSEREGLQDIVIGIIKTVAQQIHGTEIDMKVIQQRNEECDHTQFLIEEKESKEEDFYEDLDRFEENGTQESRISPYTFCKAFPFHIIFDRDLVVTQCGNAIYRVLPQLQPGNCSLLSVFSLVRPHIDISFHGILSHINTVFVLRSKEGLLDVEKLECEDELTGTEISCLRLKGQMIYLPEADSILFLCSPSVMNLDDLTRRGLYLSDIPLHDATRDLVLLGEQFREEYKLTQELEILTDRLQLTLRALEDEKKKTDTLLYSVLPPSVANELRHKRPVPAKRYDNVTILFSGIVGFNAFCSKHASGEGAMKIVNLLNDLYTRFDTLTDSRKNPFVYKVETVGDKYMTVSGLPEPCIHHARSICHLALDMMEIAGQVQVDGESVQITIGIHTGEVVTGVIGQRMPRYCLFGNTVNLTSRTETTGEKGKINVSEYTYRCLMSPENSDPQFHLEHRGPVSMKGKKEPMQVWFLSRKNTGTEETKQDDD
Description: Cell-based sGC Functional Assay (CASA Assay), cGMP generation. To be noted: CHO-K1/sGC cells, 1 hr at 37° C., cGMP by HTRF, 4P fit; presence or absence of 1 μM DETA-NO not given; read-out: IP (nM) (inflection point). Summed up:
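Readout is HTRF cGMP in lysates, normalised to the maximal response of reference sGC activator Compound A (100%), with a 4P fit giving IP and fold induction. Cells were CHO-K1/sGC (human α1/β1) in EBSS buffer with IBMX, incubated 1 hr at 37° C with compound. Run with and without 1 μM DETA-NO; final DMSO 2.5%.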
(In general: In TR-FRET formats the signal depends on donor and acceptor labels being close together.)
Regarding `CC1(c2ccc(Cl)cn2)C(=O)Nc2nc(-c3cn4ncnc4c(CCC(F)(F)F)n3)nc(N)c21` (centres unmarked) [Example 79A, 4-amino-5-(5-chloropyridin-2-yl)-5-methyl-2-(8-(3,3,3-trifluoropropyl)-[1,2,4]triazolo[1,5-a]pyrazin-6-yl)-5H-pyrrolo[2,3-d]pyrimidin-6(7H)-one], the EC50 is 325 nM.

Take `O=C1Nc2nc(-c3cn4ncnc4c(CCC(F)(F)C(F)(F)F)n3)nc(O)c2C1(c1cncc(F)c1)C1CC1` (centres unmarked) [Example 124B, 5-cyclopropyl-5-(5-fluoropyridin-3-yl)-4-hydroxy-2-(8-(3,3,4,4,4-pentafluorobutyl)-[1,2,4]triazolo[1,5-a]pyrazin-6-yl)-5H-pyrrolo[2,3-d]pyrimidin-6(7H)-one]: the EC50 stood at 1050 nM.

`C[C@@]1(c2ccc(F)cc2)C(=O)Nc2nc(-c3cn4ncnc4c(CCC(F)(F)F)n3)ncc21` [Example 174A, (S)-5-(4-fluorophenyl)-5-methyl-2-(8-(3,3,3-trifluoropropyl)-[1,2,4]triazolo[1,5-a]pyrazin-6-yl)-5,7-dihydro-6H-pyrrolo[2,3-d]pyrimidin-6-one]: the EC50 was found to be 1350 nM.

Consider `CC1(c2ccc(F)c(F)c2)C(=O)Nc2nc(-c3cn4ncnc4c(CCCC(F)(F)F)n3)nc(O)c21` (centres unmarked) [Example 146B, 5-(3,4-difluorophenyl)-4-hydroxy-5-methyl-2-(8-(4,4,4-trifluorobutyl)-[1,2,4]triazolo[1,5-a]pyrazin-6-yl)-5H-pyrrolo[2,3-d]pyrimidin-6(7H)-one], for which the EC50 is 45.5 nM.

Turning to `CCCc1nc(-c2nc(O)c3c(n2)NC(=O)C3(c2ccc(F)c(F)c2)C2CC2)cn2ncnc12` (centres unmarked) [Example 167A, 5-cyclopropyl-5-(3,4-difluorophenyl)-4-hydroxy-2-(8-propyl-[1,2,4]triazolo[1,5-a]pyrazin-6-yl)-5H-pyrrolo[2,3-d]pyrimidin-6(7H)-one], the EC50 is 1090 nM.

`C[C@@]1(c2ccc(F)cc2)C(=O)Nc2nc(-c3cn4ncnc4c(Cc4ccc(F)cc4)n3)nc(O)c21` [Example 162B, (S)-2-(8-(4-fluorobenzyl)-[1,2,4]triazolo[1,5-a]pyrazin-6-yl)-5-(4-fluorophenyl)-4-hydroxy-5-methyl-5H-pyrrolo[2,3-d]pyrimidin-6(7H)-one]: the EC50 stood at 96.7 nM.

Regarding `CC1(c2ccc(Cl)cn2)C(=O)Nc2nc(-c3cn4ncnc4c(CCC(F)(F)C(F)(F)F)n3)nc(O)c21` (centres unmarked) [Example 120A, 5-(5-chloropyridin-2-yl)-4-hydroxy-5-methyl-2-(8-(3,3,4,4,4-pentafluorobutyl)-[1,2,4]triazolo[1,5-a]pyrazin-6-yl)-5H-pyrrolo[2,3-d]pyrimidin-6(7H)-one], the EC50 was determined as 155 nM.

Take `CC1(c2ccc(F)c(Cl)c2)C(=O)Nc2nc(-c3cn4ncnc4c(CCCC(F)(F)F)n3)nc(O)c21` (centres unmarked) [Example 147B, 5-(3-chloro-4-fluorophenyl)-4-hydroxy-5-methyl-2-(8-(4,4,4-trifluorobutyl)-[1,2,4]triazolo[1,5-a]pyrazin-6-yl)-5,7-dihydro-6H-pyrrolo[2,3-d]pyrimidin-6-one]: the EC50 was determined as 214 nM.

Consider `CCCCc1nc(-c2nc(O)c3c(n2)NC(=O)C3(C)c2ccc(C(F)(F)F)cn2)cn2ncnc12` (centres unmarked) [Example 159B, 2-(8-butyl-[1,2,4]triazolo[1,5-a]pyrazin-6-yl)-4-hydroxy-5-methyl-5-(5-(trifluoromethyl)pyridin-2-yl)-5H-pyrrolo[2,3-d]pyrimidin-6(7H)-one], for which the EC50 was 209 nM.

With `CCCc1nc(-c2nc(N)c3c(n2)NC(=O)C3(C)c2ccc(Cl)cc2)cn2nc(C)nc12` (centres unmarked) [Example 93A, 4-amino-5-(4-chlorophenyl)-5-methyl-2-(2-methyl-8-propyl-[1,2,4]triazolo[1,5-a]pyrazin-6-yl)-5H-pyrrolo[2,3-d]pyrimidin-6(7H)-one], the EC50 is 439 nM.

As to `CC1(c2ccc(Cl)cn2)C(=O)Nc2nc(-c3cn4ncnc4c(CCC(F)(F)C(F)(F)F)n3)nc(N)c21` (centres unmarked) [Example 3A, 4-amino-5-(5-chloropyridin-2-yl)-5-methyl-2-(8-(3,3,4,4,4-pentafluorobutyl)-[1,2,4]triazolo[1,5-a]pyrazin-6-yl)-5H-pyrrolo[2,3-d]pyrimidin-6(7H)-one], the EC50 was found to be 40.4 nM.

For `Nc1nc(-c2cn3ncnc3c(CCCC(F)(F)F)n2)nc2c1C(c1ccc(C(F)(F)F)cn1)(C1CC1)C(=O)N2` (single isomer, unassigned) [Example 2A, 4-Amino-5-cyclopropyl-2-(8-(4,4,4-trifluorobutyl)-[1,2,4]triazolo[1,5-a]pyrazin-6-yl)-5-(5-(trifluoromethyl)pyridin-2-yl)-5H-pyrrolo[2,3-d]pyrimidin-6(7H)-one], the EC50 came out at 128 nM.

Take `CC1(c2ccc(C3CC3)nc2)C(=O)Nc2nc(-c3cn4ncnc4c(CCC(F)(F)C(F)(F)F)n3)nc(N)c21` (centres unmarked) [Example 13B, 4-amino-5-(6-cyclopropylpyridin-3-yl)-5-methyl-2-(8-(3,3,4,4,4-pentafluorobutyl)-[1,2,4]triazolo[1,5-a]pyrazin-6-yl)-5H-pyrrolo[2,3-d]pyrimidin-6(7H)-one]: the EC50 is 80.6 nM.

As to `CC1(c2nnc(C3(F)CC3)o2)C(=O)Nc2nc(-c3cn4ncnc4c(CCCC(F)(F)F)n3)nc(N)c21` (centres unmarked) [Example 109A, 4-amino-5-(5-(1-fluorocyclopropyl)-1,3,4-oxadiazol-2-yl)-5-methyl-2-(8-(4,4,4-trifluorobutyl)-[1,2,4]triazolo[1,5a]pyrazin-6-yl)-5H-pyrrolo[2,3-d] pyrimidin-6(7H)-one], the EC50 was 7.3 nM.

As for `CCCc1nc(-c2nc(N)c3c(n2)NC(=O)C3(c2ccc(Cl)cn2)C2CC2)cn2ncnc12` (centres unmarked) [Example 57A, 4-amino-5-(5-chloropyridin-2-yl)-5-cyclopropyl-2-(8-propyl-[1,2,4]triazolo[1,5-a]pyrazin-6-yl)-5H-pyrrolo[2,3-d]pynmidin-6(7H)-one], the EC50 amounted to 577 nM.

In the case of `CC1(c2ccc(Cl)cc2)C(=O)Nc2nc(-c3cn4ncnc4c(CCC(F)(F)F)n3)nc(O)c21` (centres unmarked) [Example 152A, 5-(4-chlorophenyl)-4-hydroxy-5-methyl-2-(8-(3,3,3-trifluoropropyl)-[1,2,4]triazolo[1,5-a]pyrazin-6-yl)-5H-pyrrolo[2,3-d]pyrimidin-6(7H)-one], the EC50 came to 133 nM.

In the case of `Cc1ccc(C2(C)C(=O)Nc3nc(-c4cn5ncnc5c(CCCC(F)(F)F)n4)nc(N)c32)nc1` (centres unmarked) [Example 46B, 4-amino-5-methyl-5-(5-methylpyridin-2-yl)-2-(8-(4,4,4-trifluorobutyl)-[1,2,4]triazolo[1,5-a]pyrazin-6-yl)-5H-pyrrolo[2,3-d]pynmidin-6(7H)-one], the EC50 was 10.1 nM.

In the case of `CCCc1nc(-c2nc(O)c3c(n2)NC(=O)C3(C)c2ccc(Cl)cc2)cn2ncnc12` (centres unmarked) [Example 164A, 5-(4-chlorophenyl)-4-hydroxy-5-methyl-2-(8-propyl-[1,2,4]triazolo[1,5-a]pyrazin-6-yl)-5H-pyrrolo[2,3-d]pyrimidin-6(7H)-one], the EC50 worked out at 780 nM.

`CC1(c2ccc(Cl)cn2)C(=O)Nc2nc(-c3cn4ncnc4c(CCC(F)(F)C(F)(F)F)n3)ncc21` (centres unmarked) [Example 175A, 5-(5-chloropyridin-2-yl)-5-methyl-2-(8-(3,3,4,4,4-pentafluorobutyl)-[1,2,4]triazolo[1,5-a]pyrazin-6-yl)-5H-pyrrolo[2,3-d]pyrimidin-6(7H)-one]: the EC50 amounted to 384 nM.

As for `Nc1nc(-c2cn3ncnc3c(CCC(F)(F)C(F)(F)F)n2)nc2c1C(c1ccc(Cl)cn1)(C1CC1)C(=O)N2` (centres unmarked) [Example 7A, 4-amino-5-(5-chloropyridin-2-yl)-5-cyclopropyl-2-(8-(3,3,4,4,4-pentafluorobutyl)-[1,2,4]triazolo[1,5-a]pyrazin-6-yl)-5H-pyrrolo[2,3-d]pyrimidin-6(7H)-one], the EC50 was 41.4 nM.

The same assay, now with this note: CHO-K1/sGC cells, 1 hr at 37° C., cGMP by HTRF; presence or absence of 1 μM DETA-NO not given; read-out: % Act. (percent activation relative to maximum cGMP production of Compound A = 100%).
As for `CCCc1nc(-c2nc(O)c3c(n2)NC(=O)C3(c2ccc(F)c(F)c2)C2CC2)cn2ncnc12` (centres unmarked) [Example 167A, 5-cyclopropyl-5-(3,4-difluorophenyl)-4-hydroxy-2-(8-propyl-[1,2,4]triazolo[1,5-a]pyrazin-6-yl)-5H-pyrrolo[2,3-d]pyrimidin-6(7H)-one], the Emax stood at 70%.

For the compound `C[C@@]1(c2ccc(F)cc2)C(=O)Nc2nc(-c3cn4ncnc4c(Cc4ccc(F)cc4)n3)nc(O)c21` [Example 162B, (S)-2-(8-(4-fluorobenzyl)-[1,2,4]triazolo[1,5-a]pyrazin-6-yl)-5-(4-fluorophenyl)-4-hydroxy-5-methyl-5H-pyrrolo[2,3-d]pyrimidin-6(7H)-one], the Emax amounted to 100%.

For the compound `CC1(c2ccc(Cl)cc2)C(=O)Nc2nc(-c3cn4ncnc4c(CCC(F)(F)F)n3)nc(O)c21` (centres unmarked) [Example 152A, 5-(4-chlorophenyl)-4-hydroxy-5-methyl-2-(8-(3,3,3-trifluoropropyl)-[1,2,4]triazolo[1,5-a]pyrazin-6-yl)-5H-pyrrolo[2,3-d]pyrimidin-6(7H)-one], the Emax was 70%.

The record behind these values is US9822130B2, “Triazolo-pyrazinyl derivatives useful as soluble guanylate cyclase activators” (Merck Sharp & Dohme Corp., priority 2014, dated 2017).
